Assay results published in PMC5645021 (Organic letters, 2014).

Tests used:
Assay type in all cases: cell-based
[1] = target: oncogenic mutant K-Ras (mGFP-K-RasG12 V) (Homo sapiens, UniProt P01116, G12V); test: K-Ras PM mislocalization; settings: for K-Ras PM mislocalization Emax: maximum extent of mislocalization of K-Ras from the PM to the endomembrane, MDCK cells; for IC50: read-out: K-Ras PM mislocalization IC50, mGFP-K-RasG12V in intact MDCK cells
SW620 Ad300 = test: MTT cytotoxicity, SW620 Ad300; settings: for FR (fold resistance): IC50 ratio for SW620 Ad300 versus SW620; for IC50: read-out: MTT cytotoxicity SW620 Ad300 IC50, P-gp overexpressing daughter cell line SW620 Ad300; for FR (fold resistance), control study: SW620 Ad300 versus SW620
SW620 = test: MTT cytotoxicity, SW620; settings: read-out: MTT cytotoxicity SW620 IC50; colon cancer cell line SW620
A549 versus H522 = test: Cytotoxicity toward K-Ras mutated versus non-mutated lung cancer cells; settings: human lung cancer cells

Sequence of oncogenic mutant K-Ras (mGFP-K-RasG12 V) (P01116 1-188 isoform P01116-2 G12V): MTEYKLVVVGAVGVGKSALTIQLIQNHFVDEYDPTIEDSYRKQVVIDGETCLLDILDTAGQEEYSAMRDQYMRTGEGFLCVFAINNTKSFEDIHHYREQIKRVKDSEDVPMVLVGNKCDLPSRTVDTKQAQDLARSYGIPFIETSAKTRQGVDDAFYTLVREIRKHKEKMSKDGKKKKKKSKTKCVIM

Row | Structure (SMILES) | K-Ras PM mislocalization Emax [1] | IC50 [1] [nM] | FR (fold resistance) (SW620 Ad300) | IC50 (SW620 Ad300) [nM] | IC50 (SW620) [nM] | increased cytotoxicity toward K-Ras mutated A549 versus non-mutated H522 (A549 versus H522) [fold] | FR (fold resistance), control study (SW620 Ad300; coadministration with the P-gp inhibitor verapamil) | FR (fold resistance), control study (SW620 Ad300; doxorubicin alone)
1 | CC[C@H](C)[C@@H]1OC(=O)C(C)(C)[C@@H](O)[C@@H](Cc2ccccc2)OC(=O)[C@H](C(C)C)OC(=O)[C@@H](NC(=O)c2cccc(NC=O)c2O)[C@H](C)OC1=O [compound 1, neoantimycin] | 0.60 ± 0.03 | 2.9 ± 0.7 | 3.8 | 230 | 60 | 50 | – | –
2 | CCC(C)C1OC(=O)C(NC(=O)c2cccc(NC=O)c2O)C(C)OC(=O)C(C(C)CC)OC(=O)C(C)(C)C(O)C(Cc2ccccc2)OC1=O (stereo not drawn) [compound 3, neoantimycin G] | 0.62 ± 0.01 | 7.9 ± 0.5 | – | 260 | 40 | – | – | –
3 | COc1cccc2c1C(=O)c1c(O)c3c(c(O)c1C2=O)C[C@@](O)(C(=O)CO)C[C@@H]3O[C@H]1C[C@H](N)[C@H](O)[C@H](C)O1 [doxorubicin] | – | – | – | – | – | – | 2.4 | 22
4 | CC[C@H](C)[C@@H]1OC(=O)C(C)(C)C(=O)[C@@H](Cc2ccccc2)OC(=O)[C@H](C(C)C)OC(=O)[C@@H](NC(=O)c2cccc(NC=O)c2O)[C@@H](C)OC1=O [compound 4, neoantimycin H] | 0.60 ± 0.02 | 6.4 ± 0.5 | 2.7 | 190 | 70 | – | – | –
5 | CCCCCC[C@H]1C(=O)O[C@H](C)[C@H](NC(=O)c2cccc(NC=O)c2O)C(=O)O[C@@H](C)[C@@H]1OC(=O)C(C)C [compound 5, antimycin A2a, reference compound] | 0.78 ± 0.02 | 7.9 ± 0.3 | 2.1 | 320 | 150 | > 26 | – | –
6 | CCCC[C@H]1C(=O)O[C@H](C)[C@H](NC(=O)c2cccc(NC=O)c2O)C(=O)O[C@@H](C)[C@@H]1OC(=O)C(C)C [compound 6, antimycin A4a, reference compound] | 0.79 ± 0.02 | 3.7 ± 0.3 | 3.7 | 440 | 120 | – | – | –
7 | CC(C)[C@@H]1OC(=O)[C@@H](NC(=O)c2cccc(NC=O)c2O)[C@H](C)OC(=O)[C@H](C(C)C)OC(=O)C(C)(C)[C@@H](O)[C@@H](Cc2ccccc2)OC1=O [compound 2, neoantimycin F] | 0.56 ± 0.01 | 9.9 ± 0.2 | 3.8 | 610 | 160 | – | – | –
8 | CCC(C)[C@@H]1OC(=O)[C@H](C)OC(=O)[C@@H](NC(=O)c2cccc(NC=O)c2O)[C@@H](C)OC(=O)[C@H](CC(C)C)OC(=O)C(C)(C)C(=O)[C@H](CC(C)C)NC1=O (stereo partly drawn) [compound 7, respirantin, reference compound] | 0.78 ± 0.02 | 0.7 ± 0.1 | 3.0 | 30 | 10 | > 33 | – | –
